Experimental data as given in the NIST ThermoML archive (doi:10.1021/je050020m).

Assay: xn = mol fraction of the nth substance listed
Details: Liquid, Vibrating tube method

CCCCCCCCCC [decane] + O=C=O
Details | mass density [kg/m3]
313.1 K, 2005 kPa, x2 = 0.0551 | 717.94
313.1 K, 3035 kPa, x2 = 0.0551 | 718.98
313.1 K, 4061 kPa, x2 = 0.0551 | 719.88
313.1 K, 5020 kPa, x2 = 0.2369 | 728.09
313.1 K, 5063 kPa, x2 = 0.0551 | 720.72
313.1 K, 6029 kPa, x2 = 0.0551 | 721.55
313.1 K, 6029 kPa, x2 = 0.2369 | 729.09
313.1 K, 7015 kPa, x2 = 0.2369 | 730.07
313.1 K, 7028 kPa, x2 = 0.0551 | 722.42
313.1 K, 7998 kPa, x2 = 0.0551 | 723.25
313.1 K, 8019 kPa, x2 = 0.2369 | 731.05
313.1 K, 9012 kPa, x2 = 0.2369 | 732.01
313.1 K, 9019 kPa, x2 = 0.0551 | 724.09
313.1 K, 10010 kPa, x2 = 0.0551 | 724.92
313.1 K, 10012 kPa, x2 = 0.2369 | 732.96
313.1 K, 11018 kPa, x2 = 0.2369 | 733.88
313.1 K, 11032 kPa, x2 = 0.0551 | 725.72
313.1 K, 12009 kPa, x2 = 0.2369 | 734.8
313.1 K, 12046 kPa, x2 = 0.0551 | 726.55
313.1 K, 13016 kPa, x2 = 0.2369 | 735.72
313.1 K, 13029 kPa, x2 = 0.0551 | 727.32
313.1 K, 14011 kPa, x2 = 0.0551 | 728.1
313.1 K, 14019 kPa, x2 = 0.2369 | 736.6
313.1 K, 15006 kPa, x2 = 0.2369 | 737.46
313.1 K, 15013 kPa, x2 = 0.0551 | 728.84
313.1 K, 15992 kPa, x2 = 0.0551 | 729.58
313.1 K, 16017 kPa, x2 = 0.2369 | 738.34
313.1 K, 16999 kPa, x2 = 0.0551 | 730.32
313.1 K, 17006 kPa, x2 = 0.2369 | 739.17
313.1 K, 18008 kPa, x2 = 0.2369 | 740.01
313.1 K, 18044 kPa, x2 = 0.0551 | 731.13
313.1 K, 19016 kPa, x2 = 0.2369 | 740.85
313.1 K, 19030 kPa, x2 = 0.0551 | 731.85
313.1 K, 19999 kPa, x2 = 0.0551 | 732.57
313.1 K, 20000 kPa, x2 = 0.2369 | 741.67
313.1 K, 21019 kPa, x2 = 0.2369 | 742.51
313.1 K, 21031 kPa, x2 = 0.0551 | 733.3
313.1 K, 22002 kPa, x2 = 0.2369 | 743.29
313.1 K, 22015 kPa, x2 = 0.0551 | 734
313.1 K, 23007 kPa, x2 = 0.2369 | 744.12
313.1 K, 23023 kPa, x2 = 0.0551 | 734.74
313.1 K, 24008 kPa, x2 = 0.2369 | 744.96
313.1 K, 24060 kPa, x2 = 0.0551 | 735.5
313.1 K, 25013 kPa, x2 = 0.2369 | 745.78
313.1 K, 25026 kPa, x2 = 0.0551 | 736.2
313.11 K, 7015 kPa, x2 = 0.4536 | 742.3
313.11 K, 8024 kPa, x2 = 0.4536 | 743.57
313.11 K, 9021 kPa, x2 = 0.4536 | 744.82
313.11 K, 10024 kPa, x2 = 0.4536 | 746.02
313.11 K, 11020 kPa, x2 = 0.4536 | 747.22
313.11 K, 11029 kPa, x2 = 0.9663 | 714.21
313.11 K, 12022 kPa, x2 = 0.4536 | 748.39
313.11 K, 12037 kPa, x2 = 0.9663 | 738.68
313.11 K, 13012 kPa, x2 = 0.4536 | 749.55
313.11 K, 13049 kPa, x2 = 0.9663 | 758.54
313.11 K, 14017 kPa, x2 = 0.4536 | 750.69
313.11 K, 14020 kPa, x2 = 0.9663 | 774.43
313.11 K, 15013 kPa, x2 = 0.9663 | 788.48
313.11 K, 15020 kPa, x2 = 0.4536 | 751.81
313.11 K, 16007 kPa, x2 = 0.9663 | 800.98
313.11 K, 16020 kPa, x2 = 0.4536 | 752.93
313.11 K, 17013 kPa, x2 = 0.4536 | 753.99
313.11 K, 17027 kPa, x2 = 0.9663 | 812.43
313.11 K, 17984 kPa, x2 = 0.9663 | 822.21
313.11 K, 18019 kPa, x2 = 0.4536 | 755.06
313.11 K, 19014 kPa, x2 = 0.4536 | 756.08
313.11 K, 19037 kPa, x2 = 0.9663 | 832.11
313.11 K, 20002 kPa, x2 = 0.9663 | 840.48
313.11 K, 20018 kPa, x2 = 0.4536 | 757.13
313.11 K, 21015 kPa, x2 = 0.9663 | 848.66
313.11 K, 21018 kPa, x2 = 0.4536 | 758.18
313.11 K, 22006 kPa, x2 = 0.4536 | 759.18
313.11 K, 22023 kPa, x2 = 0.9663 | 856.28
313.11 K, 23003 kPa, x2 = 0.4536 | 760.18
313.11 K, 23021 kPa, x2 = 0.9663 | 863.4
313.11 K, 24023 kPa, x2 = 0.4536 | 761.23
313.11 K, 24063 kPa, x2 = 0.9663 | 870.36
313.11 K, 24976 kPa, x2 = 0.9663 | 876.18
313.11 K, 25010 kPa, x2 = 0.4536 | 762.23
313.12 K, 12053 kPa, x2 = 0.8114 | 782.82
313.12 K, 13017 kPa, x2 = 0.8114 | 785.68
313.12 K, 14021 kPa, x2 = 0.8114 | 788.54
313.12 K, 15103 kPa, x2 = 0.8114 | 791.51
313.12 K, 15990 kPa, x2 = 0.8114 | 793.84
313.12 K, 16981 kPa, x2 = 0.8114 | 796.39
313.12 K, 17993 kPa, x2 = 0.8114 | 798.92
313.12 K, 19038 kPa, x2 = 0.8114 | 801.45
313.12 K, 20009 kPa, x2 = 0.8114 | 803.73
313.12 K, 21018 kPa, x2 = 0.8114 | 806.06
313.12 K, 22020 kPa, x2 = 0.8114 | 808.29
313.12 K, 22999 kPa, x2 = 0.8114 | 810.42
313.12 K, 24019 kPa, x2 = 0.8114 | 812.6
313.12 K, 25017 kPa, x2 = 0.8114 | 814.7
323.04 K, 11016 kPa, x2 = 0.9663 | 580.54
323.04 K, 12005 kPa, x2 = 0.8114 | 762.12
323.04 K, 12030 kPa, x2 = 0.9663 | 636.15
323.04 K, 13009 kPa, x2 = 0.8114 | 765.56
323.04 K, 13015 kPa, x2 = 0.9663 | 672.02
323.04 K, 14007 kPa, x2 = 0.9663 | 698.83
323.04 K, 14026 kPa, x2 = 0.8114 | 769
323.04 K, 15008 kPa, x2 = 0.8114 | 772.02
323.04 K, 15021 kPa, x2 = 0.9663 | 721.04
323.04 K, 16018 kPa, x2 = 0.9663 | 739.12
323.04 K, 16046 kPa, x2 = 0.8114 | 775.13
323.04 K, 17018 kPa, x2 = 0.8114 | 777.99
323.04 K, 17026 kPa, x2 = 0.9663 | 754.76
323.04 K, 18002 kPa, x2 = 0.8114 | 780.75
323.04 K, 18010 kPa, x2 = 0.9663 | 768.22
323.04 K, 19001 kPa, x2 = 0.9663 | 780.23
323.04 K, 19025 kPa, x2 = 0.8114 | 783.58
323.04 K, 20025 kPa, x2 = 0.9663 | 791.43
323.04 K, 20031 kPa, x2 = 0.8114 | 786.22
323.04 K, 21021 kPa, x2 = 0.9663 | 801.33
323.04 K, 21047 kPa, x2 = 0.8114 | 788.86
323.04 K, 21988 kPa, x2 = 0.8114 | 791.16
323.04 K, 22023 kPa, x2 = 0.9663 | 810.55
323.04 K, 22999 kPa, x2 = 0.8114 | 793.66
323.04 K, 23026 kPa, x2 = 0.9663 | 819.05
323.04 K, 24016 kPa, x2 = 0.8114 | 796.11
323.04 K, 24036 kPa, x2 = 0.9663 | 827.07
323.04 K, 25030 kPa, x2 = 0.9663 | 834.47
323.04 K, 25054 kPa, x2 = 0.8114 | 798.55
323.05 K, 1989 kPa, x2 = 0.0551 | 710.33
323.05 K, 3015 kPa, x2 = 0.0551 | 711.28
323.05 K, 3984 kPa, x2 = 0.0551 | 712.18
323.05 K, 5002 kPa, x2 = 0.0551 | 713.14
323.05 K, 6010 kPa, x2 = 0.0551 | 714.04
323.05 K, 7043 kPa, x2 = 0.0551 | 714.97
323.05 K, 8018 kPa, x2 = 0.0551 | 715.86
323.05 K, 9009 kPa, x2 = 0.0551 | 716.73
323.05 K, 10008 kPa, x2 = 0.0551 | 717.66
323.05 K, 11036 kPa, x2 = 0.0551 | 718.47
323.05 K, 11995 kPa, x2 = 0.0551 | 719.35
323.05 K, 13035 kPa, x2 = 0.0551 | 720.16
